Data as given in patent US20070218002A1, “Method for Detecting Alzheimer's Disease and other Forms of Dementia, and Measuring Their Progression” (priority 2004, published 2007).
Where “and” joins values, the source holds several entries; their conditions need not be identical. Identical values can stand only once.

Tests used:
[1] = system: glucose metabolism; assay: [F-18]FDG PET, relative standardized uptake value; type: in vivo, human; conditions: normalized to motor cortex
Description: (§1) All scans were performed with ECAT HR or ECAT HR+ scanners (Siemens-CTI, Knoxville, Tenn.). The subjects were in the supine position with the imaging plane parallel to the orbito-meatal line and with their eyes open and ears unoccluded. A 20 min transmission scan was performed to correct PET data for radiation attenuation. 320-550 MBq of a PET tracer was injected as a bolus injection via the in-dwelling venous catheter, and the consecutive dynamic head PET scans were performed for 1 hour with [F-18]FDG or for 2 hours with [F-18]MPPF or with [F-18]FDDNP.
(§2) All PET scans were decay corrected and reconstructed using filtered-back projection (Hann filter, 5 mm FWHM) with scatter and attenuation correction. The resulting images contained either 47 contiguous slices with 3.4 mm plane-to-pane separation (EXACT HR) or 63 contiguous slices with the plane-to-plane separation of 2.42 mm (EXACT HR+).
The dynamic [F-18]FDG PET images were summed (frames 30-60min) and the resulting image was used for the following analysis: ROIs were drawn bilaterally on transaxially oriented images on the gray matter signal in the frontal lobe, parietal lobe, lateral temporal lobe, and medial temporal lobe. In addition, one ROI was drawn on the posterior cingulated gyrus. ROIs were also drawn bilaterally on the motor cortex as a reference region. Values for each ROI were extracted and relative standardized uptake values were calculated for each region separately. The average of both ROIs from the same region was divided by the average of ROI values for the motor cortex. In a similar way, the ROI value for the posterior cingulated gyrus was normalized by the average value for motor cortex. Finally the global [F-18]FDG SUVR index was calculated for the parietal, medial temporal, and lateral temporal lobes.

[2] = target: T1, serotonin 5-HT1A receptors (Homo sapiens, UniProt P08908); assay: [F-18]MPPF PET, Logan plot quantitation of binding potential; type: in vivo
T1 construct: from tissue; host or cells: living human brain (in vivo PET; hippocampus, raphe nuclei, cortical regions)
T1 sequence (P08908 1-422): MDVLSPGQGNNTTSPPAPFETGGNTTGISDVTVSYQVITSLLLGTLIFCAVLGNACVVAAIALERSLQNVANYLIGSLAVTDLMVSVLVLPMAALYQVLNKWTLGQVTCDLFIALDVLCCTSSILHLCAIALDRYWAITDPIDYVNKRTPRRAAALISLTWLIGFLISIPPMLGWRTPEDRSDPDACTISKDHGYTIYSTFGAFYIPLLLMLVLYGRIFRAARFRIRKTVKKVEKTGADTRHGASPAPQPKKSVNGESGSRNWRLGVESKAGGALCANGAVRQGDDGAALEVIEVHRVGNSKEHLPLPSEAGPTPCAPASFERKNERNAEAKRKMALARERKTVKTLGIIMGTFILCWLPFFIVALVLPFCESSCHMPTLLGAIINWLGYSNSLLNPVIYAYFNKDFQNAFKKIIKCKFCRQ
Description: as §1, §2
Anatomical brain magnetic resonance scans were obtained using either a 1.5 Tesla magnet (General Electric-Signa, Milwaukee, Wis.) or a 3 Tesla magnet (General Electric-Signa) scanner. […] A double echo, fast spin echo series using a 24-cm field of view and 256×256 matrix with 3 mm/0 gap (TR=6000 [3T] and 2000 [1.5T]; TE=17/85 [3T] and 30/90 [1.5T]) An inter-modality image co-registration program (7) that uses image segmentation and simulation as preprocessing procedures was used to co-register PET and anatomical MRI images of each subject. Rules for ROI drawing were based on the identification of gyral and sulcal landmarks with respect to the atlas of Talairach and Tournoux (8).
Quantitation of [F-18]MPPF binding was performed using Logan plot graphical analysis, using the cerebellum, an area largely devoid of 5-HT1A receptors, as the reference region (9). […] Tracer binding potential (BP=Bmax/Kd) parametric images were analyzed using ROIs drawn bilaterally on hippocampus, lateral temporal lobe, parietal lobe, frontal lobe, and posterior cingulate cortex, and a single ROI on the dorsal raphe nucleus using MRI as a guide. Total binding potentials (BPT, BPT=BP×volume) were determined for left and right hippocampus by multiplying the hippocampal BP values with the hippocampus volumes on co-registered MRI.

[3] = target: T2, 5-HT1A receptors (Homo sapiens, UniProt P08908); assay: In vitro [F-18]MPPF digital autoradiography on whole-hemisphere brain cryosections; type: binding
T2 construct: Glass mounted whole-hemisphere brain cryosections (100 μm thick), cut at the level of hippocampus; from tissue; host or cells: post-mortem human brain, whole-hemisphere cryosections at the level of the hippocampus
T2 sequence (P08908 1-422): T1 sequence (P08908 1-422)

[4] = AD subjects compared to control subjects

## OC[C@H]1OC(O)[C@H]([18F])[C@@H](O)[C@@H]1O (stereo partly drawn) [[F-18]FDG, 2-deoxy-2-[F-18]fluoro-D-glucose]
[1]; AD group
  FDG mean SUVR ± 1 SD, Frontal Lobe: 0.79 ± 0.07
  FDG mean SUVR ± 1 SD, Global: 0.66 ± 0.04
  FDG mean SUVR ± 1 SD, Lateral Temporal Lobe: 0.66 ± 0.07
  FDG mean SUVR ± 1 SD, Medial Temporal Lobe: 0.66 ± 0.04
  FDG mean SUVR ± 1 SD, Parietal Lobe: 0.67 ± 0.09
  FDG mean SUVR ± 1 SD, Posterior Cingulate Gyrus: 0.79 ± 0.11
[1]; CTRL group
  FDG mean SUVR ± 1 SD, Frontal Lobe: 0.95 ± 0.08
  FDG mean SUVR ± 1 SD, Global: 0.80 ± 0.04
  FDG mean SUVR ± 1 SD, Lateral Temporal Lobe: 0.86 ± 0.06
  FDG mean SUVR ± 1 SD, Medial Temporal Lobe: 0.73 ± 0.02
  FDG mean SUVR ± 1 SD, Parietal Lobe: 0.89 ± 0.06
  FDG mean SUVR ± 1 SD, Posterior Cingulate Gyrus: 1.05±0.09
[1]; CTRL group, listed as FDG
  FDG mean SUVR ± 1 SD, Posterior Cingulate Gyrus: 1.05 ± 0.09
[1]; MCI group
  FDG mean SUVR ± 1 SD, Frontal Lobe: 0.90 ± 0.02
  FDG mean SUVR ± 1 SD, Global: 0.77 ± 0.04
  FDG mean SUVR ± 1 SD, Lateral Temporal Lobe: 0.81 ± 0.05
  FDG mean SUVR ± 1 SD, Medial Temporal Lobe: 0.69 ± 0.03
  FDG mean SUVR ± 1 SD, Parietal Lobe: 0.84 ± 0.05
  FDG mean SUVR ± 1 SD, Posterior Cingulate Gyrus: 0.89±0.06
[1]; MCI group, listed as FDG
  FDG mean SUVR ± 1 SD, Posterior Cingulate Gyrus: 0.89 ± 0.06

## COc1ccccc1N1CCN(CCN(C(=O)c2ccc([18F])cc2)c2ccccn2)CC1 [[F-18]MPPF, 4-[F-18]fluoro-N-{2-[1-(2-methoxyphenyl)-piperazinyl]ethyl}-N-(2-pyridinyl)benzamide]
[2]; AD
  hippocampus total binding potential (BPT=BP×volume): 2.24±0.61
[2]; AD group
  [F-18]MPPF mean BP ± 1 SD, Frontal Lobe: 0.41 ± 0.13
  [F-18]MPPF mean BP ± 1 SD, Lateral Temporal Lobe: 0.73 ± 0.16
  [F-18]MPPF mean BP ± 1 SD, Parietal Lobe: 0.48 ± 0.13
  [F-18]MPPF mean BP ± 1 SD, Posterior Cingulate Gyrus: 0.56 ± 0.20
[2]; AD patients in general
  MPPF accumulation in the hippocampi: ≤ 50%
[2]; [4]
  drop in dorsal raphe nucleus BP values: 41%
  drop in hippocampus BP values: 27%
[2]; ADs
  hippocampus BPT lower compared with controls: 49%
[2]; Control group
  [F-18]MPPF mean BP ± 1 SD, Frontal Lobe: 0.49 ± 0.15
  [F-18]MPPF mean BP ± 1 SD, Hippocampus: 1.62±0.07
  [F-18]MPPF mean BP ± 1 SD, Lateral Temporal Lobe: 0.82 ± 0.17
  [F-18]MPPF mean BP ± 1 SD, Parietal Lobe: 0.63 ± 0.15
  [F-18]MPPF mean BP ± 1 SD, Posterior Cingulate Gyrus: 0.68 ± 0.06
  [F-18]MPPF mean BP ± 1 SD, Raphe Nuclei: 0.63±0.09
[2]; MCI
  hippocampus total binding potential (BPT=BP×volume): 3.14±0.34
[2]; MCI group
  [F-18]MPPF mean BP ± 1 SD, Frontal Lobe: 0.44 ± 0.12
  [F-18]MPPF mean BP ± 1 SD, Lateral Temporal Lobe: 0.80 ± 0.11
  [F-18]MPPF mean BP ± 1 SD, Parietal Lobe: 0.43 ± 0.11
  [F-18]MPPF mean BP ± 1 SD, Posterior Cingulate Gyrus: 0.56 ± 0.12
  [F-18]MPPF mean BP ± 1 SD, Raphe Nuclei: 0.52 ± 0.11
[2]; MCI subjects
  mean hippocampus BP value lower than in controls: 13%
[2]; MCIs
  hippocampus BPT lower compared with controls: 24%
[2]; controls
  hippocampus total binding potential (BPT=BP×volume): 4.40±0.22
[3]; AD cases (individual)
  binding ratio (BR), outer layers of gray matter in the inferior temporal gyrus: 1.13 and 1.16
[3]; AD samples (individual)
  hippocampal binding ratio (BR), CA1 field/subiculum relative to inner layer of inferior temporal gyrus gray matter: 1.03 and 1.18
[3]; AD vs control samples
  drop in in vitro binding, hippocampus: 60-70%
[3]; control samples (individual)
  hippocampal binding ratio (BR), CA1 field/subiculum relative to inner layer of inferior temporal gyrus gray matter: 3.29 and 3.00 and 2.98
[3]; non-demented cases (individual)
  binding ratio (BR), outer layers of gray matter in the inferior temporal gyrus: 1.46 and 1.40 and 2.01
